pIC50: −log10 of the molar value.
What was measured:
[1] = biological target: T1, wild type Bcr-abl (Homo sapiens, UniProt P00519); assay: Proliferation of Ba/F3 cells expressing wild type Bcr-abl; type: cell-based
T1 construct: BCR (N-terminal fusion partner); expressed in transfected cells; host or cells: Ba/F3 (murine pro-B cells); the other entry of the earlier key: BCR (P11274, Breakpoint cluster region protein)
Method: (§1) 32D-p210 cells are plated into 96 well TC plates at a density of 15,000 cells per well. 50 μL of two fold serial dilutions of the test compound (Cmax is 40 μM) are added to each well (STI571 is included as a positive control). After incubating the cells for 48 hours at 37° C., 5% CO2, 15 μL of MTT (Promega) is added to each well and the cells are incubated for an additional 5 hours. The optical density at 570 nm is quantified spectrophotometrically and IC50 values, the concentration of compound required for 50% inhibition, determined from a dose response curve.
(§2) Compounds of the invention are tested for their antiproliferative effect on Ba/F3 cells expressing either wild type or the mutant forms of BCR-Abl (G250E, E255V, T315I, F317L, M351T) that confers resistance or diminished sensitivity to ST1571. The antiproliferative effect of these compounds on the mutant-BCR-Abl expressing cells and on the non transformed cells were tested at 10, 3.3, 1.1 and 0.37 μM as described above (in media lacking IL3). The IC50 values of the compounds lacking toxicity on the untransformed cells were determined from the dose response curves obtained as describe above.

[2] = biological target: T2, G250E Bcr-abl (Homo sapiens, UniProt P00519, G250E); assay: Proliferation of Ba/F3 cells expressing G250E mutant Bcr-abl; type: cell-based
T2 construct: BCR (N-terminal fusion partner); expressed in transfected cells; host or cells: Ba/F3 (murine pro-B cells); the other entry of the earlier key: BCR (P11274, Breakpoint cluster region protein)
Method: as §1, §2

[3] = biological target: T3, E255V Bcr-abl (Homo sapiens, UniProt P00519, E255V); assay: Proliferation of Ba/F3 cells expressing E255V mutant Bcr-abl; type: cell-based
T3 construct: BCR (N-terminal fusion partner); expressed in transfected cells; host or cells: Ba/F3 (murine pro-B cells); the other entry of the earlier key: BCR (P11274, Breakpoint cluster region protein)
Method: as §1, §2

[4] = biological target: T4, T315I Bcr-abl (Homo sapiens, UniProt P00519, T315I); assay: Proliferation of Ba/F3 cells expressing T315I mutant Bcr-abl; type: cell-based
T4 construct: BCR (N-terminal fusion partner); expressed in transfected cells; host or cells: Ba/F3 (murine pro-B cells); the other entry of the earlier key: BCR (P11274, Breakpoint cluster region protein)
Method: as §1, §2

[5] = biological target: T5, F317L Bcr-abl (Homo sapiens, UniProt P00519, F317L); assay: Proliferation of Ba/F3 cells expressing F317L mutant Bcr-abl; type: cell-based
T5 construct: BCR (N-terminal fusion partner); expressed in transfected cells; host or cells: Ba/F3 (murine pro-B cells); the other entry of the earlier key: BCR (P11274, Breakpoint cluster region protein)
Method: as §1, §2

[6] = biological target: T6, M351T Bcr-abl (Homo sapiens, UniProt P00519, M351T); assay: Proliferation of Ba/F3 cells expressing M351T mutant Bcr-abl; type: cell-based
T6 construct: BCR (N-terminal fusion partner); expressed in transfected cells; host or cells: Ba/F3 (murine pro-B cells); the other entry of the earlier key: BCR (P11274, Breakpoint cluster region protein)
Method: as §1, §2

[7] = biological target: T7, FGFR3 (Homo sapiens, UniProt P22607); assay: FGFR3 (Enzymatic Assay); type: biochemical; conditions: FGFR3 enzyme assay
T7 construct: purchased Upstate
Method: Kinase activity assay with purified FGFR3 (Upstate) is carried out in a final volume of 10 μL containing 0.25 μg/mL of enzyme in kinase buffer (30 mM Tris-HCl pH7.5, 15 mM MgCl2, 4.5 mM MnCl2, 15 μM Na3VO4 and 50 μg/mL BSA), and substrates (5 μg/mL biotin-poly-EY(Glu, Tyr) (CIS-US, Inc.) and 3 μM ATP). Two solutions are made: the first solution of 5 μl contains the FGFR3 enzyme in kinase buffer was first dispensed into 384-format ProxiPlate® (Perkin-Elmer) followed by adding 50 nL of compounds dissolved in DMSO, then 5 μl of second solution contains the substrate (poly-EY) and ATP in kinase buffer was added to each wells. The reactions are incubated at room temperature for one hour, stopped by adding 10 μL of HTRF detection mixture, which contains 30 mM Tris-HCl pH7.5, 0.5 M KF, 50 mM ETDA, 0.2 mg/mL BSA, 15 μg/mL streptavidin-XL665 (CIS-US, Inc.) and 150 ng/mL cryptate conjugated anti-phosphotyrosine antibody (CIS-US, Inc.). After one hour of room temperature incubation to allow for streptavidin-biotin interaction, time resolved florescent signals are read on Analyst GT (Molecular Devices Corp.). IC50 values are calculated by linear regression analysis of the percentage inhibition of each compound at 12 concentrations (1:3 dilution from 50 μM to 0.28 nM).

[8] = tested on: Ba/F3-TEL-FGFR3 cells; assay: FGFR3 (Cellular Assay); type: cell-based
Method: Compounds of the invention are tested for their ability to inhibit transformed Ba/F3-TEL-FGFR3 cells proliferation, which is depended on FGFR3 cellular kinase activity. Ba/F3-TEL-FGFR3 are cultured up to 800,000 cells/mL in suspension, with RPMI 1640 supplemented with 10% fetal bovine serum as the culture medium. Cells are dispensed into 384-well format plate at 5000 cell/well in 50 μL culture medium. Compounds of the invention are dissolved and diluted in dimethylsufoxide (DMSO). Twelve points 1:3 serial dilutions are made into DMSO to create concentrations gradient ranging typically from 10 mM to 0.05 μM. Cells are added with 50 nL of diluted compounds and incubated for 48 hours in cell culture incubator. AlamarBlue® (TREK Diagnostic Systems), which can be used to monitor the reducing environment created by proliferating cells, are added to cells at final concentration of 10%. After additional four hours of incubation in a 37° C. cell culture incubator, fluorescence signals from reduced AlamarBlue® (Excitation at 530 nm, Emission at 580 nm) are quantified on Analyst GT (Molecular Devices Corp.). IC50 values are calculated by linear regression analysis of the percentage inhibition of each compound at 12 concentrations.

[9] = biological target: b-Raf (Homo sapiens, UniProt P15056); assay: b-Raf enzyme assay; type: biochemical
Method: Compounds of the invention are tested for their ability to inhibit the activity of b-Raf. The assay is carried out in 384-well MaxiSorp plates (NUNC) with black walls and clear bottom. The substrate, IκBα is diluted in DPBS (1:750) and 15 μl is added to each well. The plates are incubated at 4° C. overnight and washed 3 times with TBST (25 mM Tris, pH 8.0, 150 mM NaCl and 0.05% Tween-20) using the EMBLA plate washer. Plates are blocked by Superblock (15 μl/well) for 3 hours at room temperature, washed 3 times with TBST and pat-dried. Assay buffer containing 20 μM ATP (10 μl) is added to each well followed by 100 nl or 500 nl of compound. B-Raf is diluted in the assay buffer (1 μl into 25 μl) and 10 μl of diluted b-Raf is added to each well (0.4 μg/well). The plates are incubated at room temperature for 2.5 hours. The kinase reaction is stopped by washing the plates 6 times with TBST. Phosph-IκBα (Ser32/36) antibody is diluted in Superblock (1:10,000) and 15 μl is added to each well. The plates are incubated at 4° C. overnight and washed 6 times with TBST. AP-conjugated goat-anti-mouse IgG is diluted in Superblock (1:1,500) and 15 μl is added to each well. Plates are incubated at room temperature for 1 hour and washed 6 times with TBST. […] Plates are read on Acquest or Analyst GT using a Fluorescence Intensity Nanxin BBT anion (505 dichroic mirror).

[10] = biological target: c-Raf (Homo sapiens, UniProt P04049); assay: c-Raf enzyme assay; type: biochemical
[11] = tested on: wild-type Abl; assay: Upstate KinaseProfiler radio-enzymatic filter binding assay, Abl; type: biochemical; conditions: at a concentration of 10 μM
Method: (§3) Compounds of the invention are assessed for their ability to inhibit individual members of a panel of kinases (a partial, non-limiting list of kinases includes: Abl, BCR-Abl, CSK, JNK1, JNK2, PDGF-R, p38, p70S6K, TGFβ, SRC, EGFR, c-Kit, trkB, FGFR3, Fes, Lck, Syk, RAF, MKK4, MKK6 and SAPK2μ). The compounds are tested in duplicates at a final concentration of 10 μM following this generic protocol. Note that the kinase buffer composition and the substrates vary for the different kinases included in the “Upstate KinaseProfiler™” panel. Kinase buffer (2.5 μL, 10×—containing MnCl2 when required), active kinase (0.001-0.01 Units; 2.5 μL), specific or Poly(Glu4-Tyr) peptide (5-500 μM or 0.01 mg/ml) in kinase buffer and […] are mixed in an eppendorf on ice. […] The assay squares are transferred to a scintillation vial, 5 ml scintillation cocktail are added and ^32P incorporation (cpm) to the peptide substrate is quantified with a Beckman scintillation counter. Percentage inhibition is calculated for each reaction.

[12] = biological target: T8, Bmx (Homo sapiens, UniProt P51813); assay: Upstate KinaseProfiler radio-enzymatic filter binding assay, Bmx; type: biochemical; conditions: at a concentration of 10 μM; read-out: percentage inhibition
T8 construct: purchased Upstate
Method: as §3

[13] = biological target: T9, c-Raf (Homo sapiens, UniProt P04049, Y340D/Y341D); assay: Upstate KinaseProfiler radio-enzymatic filter binding assay, c-RAF; type: biochemical; conditions: at a concentration of 10 μM; read-out: percentage inhibition
T9 construct: purchased Upstate
Method: as §3

[14] = biological target: T10, CSK (Homo sapiens, UniProt P41240); assay: Upstate KinaseProfiler radio-enzymatic filter binding assay, CSK; type: biochemical; conditions: at a concentration of 10 μM; read-out: percentage inhibition
T10 construct: purchased Upstate
Method: as §3

[15] = biological target: T7, FGFR3; assay: Upstate KinaseProfiler radio-enzymatic filter binding assay, FGFR3; type: biochemical; conditions: at a concentration of 10 μM; read-out: percentage inhibition
Method: as §3

[16] = biological target: T11, JNK1α1 (Homo sapiens, UniProt P45983); assay: Upstate KinaseProfiler radio-enzymatic filter binding assay, JNK1α1; type: biochemical; conditions: at a concentration of 10 μM; read-out: percentage inhibition
T11 construct: purchased Upstate
Method: as §3

[17] = biological target: T12, JNK2 α2 (Homo sapiens, UniProt P45984); assay: Upstate KinaseProfiler radio-enzymatic filter binding assay, JNK2α2; type: biochemical; conditions: at a concentration of 10 μM; read-out: percentage inhibition
T12 construct: purchased Upstate
Method: as §3

[18] = biological target: T13, Lck (Homo sapiens, UniProt P06239); assay: Upstate KinaseProfiler radio-enzymatic filter binding assay, Lck; type: biochemical; conditions: at a concentration of 10 μM; read-out: percentage inhibition
T13 construct: purchased Upstate
Method: as §3

[19] = biological target: T14, MKK4 (Mus musculus, UniProt P47809); assay: Upstate KinaseProfiler radio-enzymatic filter binding assay, MKK4; type: biochemical; conditions: at a concentration of 10 μM; read-out: percentage inhibition
T14 construct: purchased Upstate
Method: as §3

[20] = biological target: T15, MKK6 (Homo sapiens, UniProt P52564); assay: Upstate KinaseProfiler radio-enzymatic filter binding assay, MKK6; type: biochemical; conditions: at a concentration of 10 μM; read-out: percentage inhibition
T15 construct: purchased Upstate
Method: as §3

[21] = biological target: T16, p70S6K (Homo sapiens, UniProt P23443); assay: Upstate KinaseProfiler radio-enzymatic filter binding assay, p70S6K; type: biochemical; conditions: at a concentration of 10 μM; read-out: percentage inhibition
T16 construct: purchased Upstate
Method: as §3

[22] = biological target: T17, SAPK2α (Homo sapiens, UniProt Q16539); assay: Upstate KinaseProfiler radio-enzymatic filter binding assay, SAPK2α; type: biochemical; conditions: at a concentration of 10 μM; read-out: percentage inhibition
T17 construct: purchased Upstate
Method: as §3

[23] = biological target: T18, SAPK2β (Homo sapiens, UniProt Q15759); assay: Upstate KinaseProfiler radio-enzymatic filter binding assay, SAPK2β; type: biochemical; conditions: at a concentration of 10 μM; read-out: percentage inhibition
T18 construct: purchased Upstate
Method: as §3

[24] = biological target: T19, TrkB (Homo sapiens, UniProt Q16620); assay: Upstate KinaseProfiler radio-enzymatic filter binding assay, TrkB; type: biochemical; conditions: at a concentration of 10 μM; read-out: percentage inhibition
T19 construct: purchased Upstate
Method: as §3

T7 sequence (P22607 23-806): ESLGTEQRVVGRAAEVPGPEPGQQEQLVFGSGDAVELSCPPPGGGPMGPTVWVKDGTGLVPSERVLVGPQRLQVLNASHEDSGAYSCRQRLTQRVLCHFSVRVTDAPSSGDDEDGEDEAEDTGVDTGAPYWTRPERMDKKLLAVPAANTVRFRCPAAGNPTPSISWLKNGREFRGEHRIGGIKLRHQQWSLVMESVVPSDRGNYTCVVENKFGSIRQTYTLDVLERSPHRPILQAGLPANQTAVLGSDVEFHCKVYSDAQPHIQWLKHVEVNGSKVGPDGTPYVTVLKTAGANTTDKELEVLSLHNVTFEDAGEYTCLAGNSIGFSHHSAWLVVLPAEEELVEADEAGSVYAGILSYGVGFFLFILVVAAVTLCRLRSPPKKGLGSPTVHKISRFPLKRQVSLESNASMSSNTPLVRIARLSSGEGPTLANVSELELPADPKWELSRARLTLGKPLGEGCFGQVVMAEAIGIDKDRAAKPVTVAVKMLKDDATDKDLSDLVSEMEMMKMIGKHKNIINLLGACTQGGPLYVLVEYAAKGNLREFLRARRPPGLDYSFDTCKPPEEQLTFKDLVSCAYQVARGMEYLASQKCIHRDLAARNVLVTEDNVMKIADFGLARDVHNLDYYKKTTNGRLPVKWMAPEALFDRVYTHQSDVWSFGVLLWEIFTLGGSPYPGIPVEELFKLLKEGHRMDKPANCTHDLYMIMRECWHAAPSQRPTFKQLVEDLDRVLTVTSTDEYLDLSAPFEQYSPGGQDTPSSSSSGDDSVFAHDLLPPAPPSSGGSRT
T13 sequence (P06239 whole entry): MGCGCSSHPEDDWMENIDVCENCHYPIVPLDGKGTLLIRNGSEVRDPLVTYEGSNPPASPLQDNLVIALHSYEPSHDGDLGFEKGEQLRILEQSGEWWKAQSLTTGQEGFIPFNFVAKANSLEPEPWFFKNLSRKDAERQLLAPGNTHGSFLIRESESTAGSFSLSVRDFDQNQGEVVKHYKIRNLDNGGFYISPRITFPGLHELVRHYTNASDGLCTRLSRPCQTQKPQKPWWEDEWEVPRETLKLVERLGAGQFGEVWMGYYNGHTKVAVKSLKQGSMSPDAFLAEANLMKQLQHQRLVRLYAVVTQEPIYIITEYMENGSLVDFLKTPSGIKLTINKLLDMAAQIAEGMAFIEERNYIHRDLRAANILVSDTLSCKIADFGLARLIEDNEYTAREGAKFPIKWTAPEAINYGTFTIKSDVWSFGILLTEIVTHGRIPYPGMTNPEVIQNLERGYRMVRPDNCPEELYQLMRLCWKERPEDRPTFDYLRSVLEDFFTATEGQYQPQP
T17 sequence (Q16539 whole entry): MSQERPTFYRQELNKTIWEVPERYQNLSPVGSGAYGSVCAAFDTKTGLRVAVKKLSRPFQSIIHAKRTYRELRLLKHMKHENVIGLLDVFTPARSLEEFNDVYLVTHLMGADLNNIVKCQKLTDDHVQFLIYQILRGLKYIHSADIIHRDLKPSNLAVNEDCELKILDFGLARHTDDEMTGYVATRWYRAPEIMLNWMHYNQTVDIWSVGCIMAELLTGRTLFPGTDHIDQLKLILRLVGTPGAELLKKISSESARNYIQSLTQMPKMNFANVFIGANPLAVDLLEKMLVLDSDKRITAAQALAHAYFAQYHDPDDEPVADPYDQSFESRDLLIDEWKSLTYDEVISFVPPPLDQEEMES
T16 sequence (P23443 whole entry): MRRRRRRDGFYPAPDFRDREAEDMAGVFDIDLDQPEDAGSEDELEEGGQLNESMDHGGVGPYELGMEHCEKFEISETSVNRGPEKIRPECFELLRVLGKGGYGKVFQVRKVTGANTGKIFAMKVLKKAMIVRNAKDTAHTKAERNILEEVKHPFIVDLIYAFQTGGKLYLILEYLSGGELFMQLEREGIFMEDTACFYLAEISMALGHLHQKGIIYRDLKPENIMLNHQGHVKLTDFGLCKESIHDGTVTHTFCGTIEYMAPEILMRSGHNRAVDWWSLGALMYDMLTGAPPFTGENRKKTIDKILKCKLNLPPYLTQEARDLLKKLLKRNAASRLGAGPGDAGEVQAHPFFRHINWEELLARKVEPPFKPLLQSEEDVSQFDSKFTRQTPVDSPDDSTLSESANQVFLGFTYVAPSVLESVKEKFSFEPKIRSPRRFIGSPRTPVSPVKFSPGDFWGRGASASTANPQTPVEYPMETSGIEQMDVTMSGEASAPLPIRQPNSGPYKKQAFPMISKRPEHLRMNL
T10 sequence (P41240 whole entry): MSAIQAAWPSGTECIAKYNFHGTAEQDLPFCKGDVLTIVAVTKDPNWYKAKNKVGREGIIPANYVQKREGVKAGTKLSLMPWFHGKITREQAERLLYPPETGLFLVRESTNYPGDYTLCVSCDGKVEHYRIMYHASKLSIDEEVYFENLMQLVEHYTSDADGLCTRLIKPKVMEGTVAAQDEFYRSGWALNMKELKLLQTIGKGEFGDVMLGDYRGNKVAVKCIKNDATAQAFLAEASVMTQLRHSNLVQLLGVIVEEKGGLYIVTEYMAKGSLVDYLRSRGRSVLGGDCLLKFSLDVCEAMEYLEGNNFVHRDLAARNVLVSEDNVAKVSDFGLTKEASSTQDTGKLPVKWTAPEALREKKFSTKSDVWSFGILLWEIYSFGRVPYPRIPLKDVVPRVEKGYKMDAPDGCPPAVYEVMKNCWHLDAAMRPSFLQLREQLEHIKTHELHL
T15 sequence (P52564 whole entry): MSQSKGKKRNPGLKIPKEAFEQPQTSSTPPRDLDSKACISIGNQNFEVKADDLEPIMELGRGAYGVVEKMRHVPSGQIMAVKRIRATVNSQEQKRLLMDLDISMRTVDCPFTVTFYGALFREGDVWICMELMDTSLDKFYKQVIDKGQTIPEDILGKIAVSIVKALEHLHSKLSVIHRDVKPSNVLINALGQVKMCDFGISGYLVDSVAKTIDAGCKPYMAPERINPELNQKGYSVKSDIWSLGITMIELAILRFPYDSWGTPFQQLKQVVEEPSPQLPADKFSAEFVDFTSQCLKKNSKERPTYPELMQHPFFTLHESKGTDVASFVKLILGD
T9 sequence (P04049 306-648 Y340D/Y341D limits assumed): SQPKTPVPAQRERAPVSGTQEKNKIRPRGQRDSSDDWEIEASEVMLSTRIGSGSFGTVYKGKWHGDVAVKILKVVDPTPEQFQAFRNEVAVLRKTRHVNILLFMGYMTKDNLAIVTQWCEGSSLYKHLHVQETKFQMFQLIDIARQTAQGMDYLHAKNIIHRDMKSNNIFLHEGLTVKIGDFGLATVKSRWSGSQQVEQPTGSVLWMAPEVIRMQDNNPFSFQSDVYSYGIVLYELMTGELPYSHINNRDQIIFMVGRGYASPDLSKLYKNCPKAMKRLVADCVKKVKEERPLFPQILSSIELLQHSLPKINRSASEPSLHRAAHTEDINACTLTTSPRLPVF
T18 sequence (Q15759 whole entry): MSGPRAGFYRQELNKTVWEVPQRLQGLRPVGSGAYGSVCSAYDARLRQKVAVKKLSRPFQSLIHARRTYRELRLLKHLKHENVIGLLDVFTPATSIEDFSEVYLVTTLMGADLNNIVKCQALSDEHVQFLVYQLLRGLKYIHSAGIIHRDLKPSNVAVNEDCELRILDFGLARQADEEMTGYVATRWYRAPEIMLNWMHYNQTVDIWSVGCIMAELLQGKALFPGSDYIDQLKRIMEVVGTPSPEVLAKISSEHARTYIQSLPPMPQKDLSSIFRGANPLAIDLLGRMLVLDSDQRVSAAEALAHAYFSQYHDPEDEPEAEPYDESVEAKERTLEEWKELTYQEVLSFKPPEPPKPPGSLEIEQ
Chain of b-Raf (P15056 whole entry): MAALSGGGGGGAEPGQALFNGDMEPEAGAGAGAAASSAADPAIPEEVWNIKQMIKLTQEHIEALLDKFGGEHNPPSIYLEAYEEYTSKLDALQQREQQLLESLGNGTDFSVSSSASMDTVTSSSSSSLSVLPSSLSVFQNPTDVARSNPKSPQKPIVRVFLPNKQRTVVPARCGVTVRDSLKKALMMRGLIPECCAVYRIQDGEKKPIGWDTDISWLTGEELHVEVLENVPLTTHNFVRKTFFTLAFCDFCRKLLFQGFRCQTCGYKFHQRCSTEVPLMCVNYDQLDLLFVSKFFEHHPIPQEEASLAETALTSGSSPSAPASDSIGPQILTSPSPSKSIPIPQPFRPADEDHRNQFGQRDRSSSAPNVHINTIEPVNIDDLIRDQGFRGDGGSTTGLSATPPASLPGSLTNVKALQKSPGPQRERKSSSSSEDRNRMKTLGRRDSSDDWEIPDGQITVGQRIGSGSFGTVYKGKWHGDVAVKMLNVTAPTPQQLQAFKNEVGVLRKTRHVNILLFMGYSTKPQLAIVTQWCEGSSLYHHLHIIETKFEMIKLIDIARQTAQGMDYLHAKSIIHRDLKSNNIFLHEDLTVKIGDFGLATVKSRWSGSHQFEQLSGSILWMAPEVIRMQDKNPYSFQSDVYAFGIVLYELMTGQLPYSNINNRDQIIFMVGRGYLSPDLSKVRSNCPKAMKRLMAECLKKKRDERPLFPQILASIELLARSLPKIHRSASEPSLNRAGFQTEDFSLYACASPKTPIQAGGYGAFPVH
T11 sequence (P45983 1-384 isoform P45983-2): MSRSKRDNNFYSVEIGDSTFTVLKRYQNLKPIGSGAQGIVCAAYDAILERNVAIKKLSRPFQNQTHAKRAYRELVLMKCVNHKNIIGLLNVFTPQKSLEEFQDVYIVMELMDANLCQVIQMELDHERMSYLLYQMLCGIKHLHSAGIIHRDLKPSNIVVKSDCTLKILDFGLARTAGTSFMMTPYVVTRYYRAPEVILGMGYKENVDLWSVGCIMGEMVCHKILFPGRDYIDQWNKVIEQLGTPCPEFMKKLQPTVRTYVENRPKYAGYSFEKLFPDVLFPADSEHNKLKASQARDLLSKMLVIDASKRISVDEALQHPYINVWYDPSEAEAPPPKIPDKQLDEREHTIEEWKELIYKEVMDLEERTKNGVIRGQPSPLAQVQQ

Compound `COc1ccc(Nc2cc3c(cn2)cc(-c2cc(NC(=O)c4cccc(C(F)(F)F)c4)ccc2C)c(=O)n3C)cn1` [Example 8, N-{3-[7-(6-Methoxy-pyridin-3-ylamino)-1-methyl-2-oxo-1,2-dihydro-[1,6]naphthyridin-3-yl]-4-methyl-phenyl}-3-trifluoromethyl-benzamide] has a pIC50 [1] greater than 9.30, a pIC50 [2] of 7.37 and a pIC50 [3] of 7.32. It also gave a pIC50 [4] of 6.91, a pIC50 [5] greater than 9.30 and a pIC50 [6] of 8.05. It also gave a pIC50 [7] of 6.97, a pIC50 [8] of 8.52 and a pIC50 [9] of 6.30. The pIC50 [10] was 7.77, the percentage inhibition [11] was 100% and the inhibition at 10 µM [12] was 100%. It also gave an inhibition at 10 µM [13] of 90%, an inhibition at 10 µM [14] of 100% and an inhibition at 10 µM [15] of 96%. The inhibition at 10 µM [16] was 89%, the inhibition at 10 µM [17] was 99% and the inhibition at 10 µM [18] was 99%. For the same compound, the inhibition at 10 µM [19] was 91%, the inhibition at 10 µM [20] was 97% and the inhibition at 10 µM [21] was 86%. For the same compound, the inhibition at 10 µM [22] was 95%, the inhibition at 10 µM [23] was 98% and the inhibition at 10 µM [24] was 97%.

Source: patent publication US7449582B2, “Compounds and compositions as protein kinase inhibitors” (IRM LLC, priority 2003, dated 2008)
